# Where a name gives a salt, the structure may show the parent alone.
# Target: PDE10A (UniProt Q9Y233)
# Assay: PDE10 enzyme inhibition, IMAP TR-FRET assay (Example A, MPDE10A7 Enzyme Activity and Inhibition)
# Format: biochemical
# Conditions: approximate IC50 value, Table 10
# Procedure, shortened: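 Compounds were preincubated 60 min at room temperature with PDE10A enzyme or tissue homogenate, then fluorescein-labeled cAMP or cGMP was added for 90 min. After stopping with IMAP binding reagents, TR-FRET was read and IC50s were fitted with a four-parameter logistic equation.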
row,SMILES,IC50 [nM]
1,"N#CC1(NC(=O)c2cnc(N[C@H]3C[C@H](n4c(=O)n(C5CC5)c5nccnc54)C3)s2)CC1 [Example 151, N-(1-cyanocyclopropyl)-2-((trans-3-(3-cyclopropyl-2-oxo-2,3-dihydro-1H-imidazo[4,5-b]pyrazin-1-yl)cyclobutyl)amino)thiazole-5-carboxamide]",2490
2,"O=C(c1cnc(N[C@H]2C[C@H](n3c(=O)n(C4CC4)c4nccnc43)C2)s1)N1CCOCC1 [Example 152, 1-cyclopropyl-3-(trans-3-((5-(morpholine-4-carbonyl)thiazol-2-yl)amino)cyclobutyl)-1H-imidazo[4,5-b]pyrazin-2(3H)-one]",9040
3,"CSc1ncc2c(n1)N([C@H]1C[C@H](Nc3nc4ccc(F)cc4s3)C1)C(=O)C2(C)C [Example 156, 7-(trans-3-((6-fluorobenzo[d]thiazol-2-yl)amino)cyclobutyl)-5,5-dimethyl-2-(methylthio)-5H-pyrrolo[2,3-d]pyrimidin-6(7H)-one]",9.08
4,"CC1(C)C(=O)N([C@H]2C[C@H](Nc3nc4ccc(F)cc4s3)C2)c2ncncc21 [Example 157, 7-(trans-3-((6-fluorobenzo[d]thiazol-2-yl)amino)cyclobutyl)-5,5-dimethyl-5H-pyrrolo[2,3-d]pyrimidin-6(7H)-one]",4.45
5,"COc1cnc(N[C@H]2C[C@H](N3C(=O)C(C)(C)c4nccnc43)C2)cn1 [Example 159, 5-(trans-3-((5-methoxypyrazin-2-yl)amino)cyclobulyl)-7,7-dimethyl-5H-pyrrolo[2,3-b]pyrazin-6(7 H)-one]",2.73
6,"CC1(C)C(=O)N([C@H]2C[C@H](Nc3ccc(Br)cn3)C2)c2nccnc21 [Example 160, 5-(trans-3-((5-bromopyridin-2-yl)amino)cyclobutyl)-7,7-dimethyl-5H-pyrrolo[2,3-b]pyrazin-6(7H)-one]",90.5
7,"Cn1c(N[C@H]2C[C@H](N3C(=O)C(C)(C)c4nccnc43)C2)nc2ccccc21 [Example 161, 7,7-dimethyl-5-(trans-3-((1-methyl-1H-benzo[d]imidazol-2-yl)amino)cyclobutyl)-5H-pyrrolo-[2,3-b]pyrazin-6(7 H)-one]",2.73
8,"CC1(C)C(=O)N([C@H]2C[C@H](Nc3ccc4cccnc4n3)C2)c2nccnc21 [Example 162, 5-(trans-3-((1,8-naphthyridin-2-yl)amino)cyclobutyl)-7,7-dimethyl-5H-pyrrolo[2,3-b]pyrazin-6(7H)-one]",6.77
9,"c1cnc2c(c1)ccn2[C@H]1C[C@H](Nc2nc3ccccc3s2)C1 [Example 165, N-(trans-3-(1H-pyrrolo[2,3-b]pyridin-1-yl)cyclobutyl)benzo[d]thiazol-2-amine]",38.5
10,"CC1(C)C(=O)N([C@H]2C[C@H](Nc3ncc4ccccc4n3)C2)c2ncccc21 [Example 166, 3,3-dimethyl-1-(trans-3-(quinazolin-2-ylamino)cyclobutyl)-1H-pyrrolo[2,3-b]pyridin-2(38)-one]",1120
11,"CC1(C)C(=O)N([C@H]2C[C@H](Nc3ccc(OC(F)F)cn3)C2)c2nccnc21 [Example 167, 5-(trans-3-((5-(difluoromethoxy)pyridin-2-yl)amino)cyclobutyl)-7,7-dimethyl-5H-pyrrolo[2,3-b]pyrazin-6(7H)-one(trifluoroacetic acid salt)]",98.4
12,"COc1ccc2nc(N[C@H]3C[C@H](N4C(=O)C(C)(C)c5nccnc54)C3)sc2c1 [Example 171, 5-(trans-3-((6-methoxybenzo[d]thiazole-2-yl)amino)cyclobutyl)-7,7-dimethyl-5H-pyrrolo[2,3-b]pyrazin-6(7 H)-one]",4.16
13,"CC1(C)C(=O)N([C@H]2C[C@H](Nc3ncc4ccc(F)cc4n3)C2)c2nccnc21 [Example 175, 5-(trans-3-((7-fluoroquinazolin-2-yl)amino)cyclobutyl)-7,7-dimethyl-5H-pyrrolo[2,3-b]lpyrazin-6(7 H)-one]",18.4
14,"O=c1n(C2CC2)c2nccnc2n1[C@H]1C[C@H](Nc2nc3ccc(F)cc3o2)C1 [Example 176, 1-cyclopropyl-3-(trans-3-((6-fluorobenzo[d]oxazol-2-yl)amino)cyclobutyl)-1H-imidazo[4,5-b]pyrazin-2(3 H)-one]",7.75
15,"CC1(C)C(=O)N([C@H]2C[C@H](Nc3nc4ccc(F)cc4o3)C2)c2nccnc21 [Example 177, 5-(trans-3-((6fluorobenzo[d]oxazol-2-yl)amino)cyclobutyl)-7,7-dimethyl-5H-pyrrolo[2,3-b]pyrazin-6(7 H)-one]",2.82
16,"O=C1COc2cccnc2N1[C@H]1C[C@H](Nc2nc3ccccc3s2)C1 [Example 182, 4-(trans-3-(benzo[d]thiazol-2-ylamino)cyclobutyl)-2H-pyrido[3,2-b][1,4]oxazin-3(4H)-one]",> 9750
17,"O=c1n(C2CC2)c2cccnc2n1[C@H]1C[C@H](Nc2ncc3ccccc3n2)C1 [Example 184, 1-cyclopropyl-3-(trans-3-(quinazolin-2-ylamino)cyclobutyl)-1H-imidazo[4,5-b]pyridin-2(3H)-one]",34.7

# Further molecules by falling IC50, results first:
row,IC50 [nM],SMILES
1,2.71,"CC1(C)C(=O)N([C@H]2C[C@H](Nc3nc4c(F)cc(F)cc4s3)C2)c2nccnc21 [Example 170, 5-(trans-3-((4,6-difluorobenzo[d]thiazole-2-yl)amino)cyclobutyl)-7,7-dimethyl-5H-pyrrolo-[2,3-b]pyrazin-6(714)-one]"
2,2.22,"O=c1n(C2CC2)c2nccnc2n1[C@H]1C[C@H](Nc2nc3cccnc3s2)C1 [Example 178, 1-cyclopropyl-3-(trans-3-(thiazolo[5,4-b]pyridin-2-ylamino)cyclobutyl)-1H-imidazo[4,5-b]pyrazin-2(3 H)-one]"
3,2.15,"Cn1c(=O)n([C@H]2C[C@H](Nc3nc4cccnc4s3)C2)c2ncccc21 [Example 172, 1-methyl-3-(trans-3-(thiazolo[-5,4-b]pyridin-2-ylamino)cyclobutyl)-1H-imidazo[4,5-b]pyridin-2(3 H)-one]"
4,2.01,"CC1(C)C(=O)N([C@H]2C[C@H](Nc3ncc4ccccc4n3)C2)c2nccnc21 [Example 179, 7,7-dimethyl-5-(trans-3-(quinazolin-2-ylamino)cyclobutyl)-5H-pyrrolo[2,3-b]pyrazin-6(7 H)-one]"
5,1.67,"Cn1c(=O)n([C@H]2C[C@H](Nc3nc4ccccc4s3)C2)c2ccccc21 [Example 155, 1-(trans-3-(benzo[d]thiazol-2-ylamino)cyclobutyl)-3-methyl-1H-benzo[d]imidazol-2(3H)-one]"
6,1.49,"CC1(C)C(=O)N([C@H]2C[C@H](Nc3nc4cccnc4s3)C2)c2nccnc21 [Example 173, 7,7-dimethyl-5-(trans-3-(thiazolo[5,4-b]pyridin-2-ylamino)cyclobutyl)-5H-pyrrolo[2,3-b]pyrazin-6(7H)-one]"
7,1.06,"CC1(C)C(=O)N(C2CC(Nc3ccc4ccccc4n3)C2)c2nccnc21 (centres unmarked) [Example 187, 7,7-dimethyl-5-(3-(quinolin-2-ylamino)cyclobutyl)-5H-pyrrolo[2,3-b]pyrazin-6(7 H)-one]"
8,0.921,"CC1(C)C(=O)N([C@H]2C[C@H](Nc3ccc(-n4cccn4)cn3)C2)c2nccnc21 [Example 164, 5-(trans-3-((5-(1H-pyrazol-1-yl)pyridin-2-yl)amino)cyclobutyl)-7,7-dimethyl-5H-pyrrolo[2,3-b]pyrazin-6(7 H)-one triacetate]"
9,0.896,O=c1n(C2CC2)c2nccnc2n1[C@H]1C[C@H](Nc2ncc3ccc(F)cc3n2)C1 [Example 174]
10,0.839,"O=c1n(C2CC2)c2cccnc2n1[C@H]1C[C@H](Nc2nc3cc(F)ccc3s2)C1 [Example 185, 1-cyclopropyl-3-(trans-3-((5-fluorobenzo[d]thiazol-2-yl)amino)cyclobutyl)-1H-imidazo[4,5-b]pyridin-2(3H)-one]"
11,0.669,"O=c1n(C2CC2)c2cccnc2n1[C@H]1C[C@H](Nc2nc3ccc(F)cc3s2)C1 [Example 186, 1-cyclopropyl-3-(trans-3-((6-fluorobenzo[d]thiazol-2-yl)amino)cyclobutyl)-1H-imidazo[4,5-b]pyridin-2(3H)-one]"
12,0.459,"CC1(C)C(=O)N([C@H]2C[C@H](Nc3ccc4ncccc4n3)C2)c2nccnc21 [Example 163, 5-(trans-3-((1,5-naphthyridin-2-yl)amino)cyclobutyl)-7,7-dimethyl-5H-pyrrolo[2,3-b]pyrazin-6(7 H)-one]"
13,0.416,"CC1(C)C(=O)N([C@H]2C[C@H](Nc3nc4cc(F)c(F)cc4s3)C2)c2nccnc21 [Example 169, 5-(trans-3-((5,6-difluorobenzo[d]thiazole-2-yl)amino)cyclobutyl)7,7-dimethyl-5H-pyrrolo-[2,3-b]pyrazin-6(7 H)-one]"
14,0.255,"Cn1c(=O)n([C@H]2C[C@H](Nc3nc4ccc(F)cc4s3)C2)c2ncccc21 [Example 153, 3-(trans-3-((6-fluorobenzo[d]thiazol-2-yl)amino)cyclobutyl)-1-methyl-1H-imidazo[4,5-b]pyridin-2(3H)-one]"
15,0.189,"CC1(C)C(=O)N([C@H]2C[C@H](Nc3ccc(Br)cn3)C2)c2nccnc21 [Example 158, 5-(trans-3-((5-bromopyridin-2-yl)amino)cyclobuty1)-7,7-dimethyl-5H-pyrrolo[2,3-b]pyrazin-6(7 H)-one]"
16,0.136,"CC1(C)C(=O)N([C@H]2C[C@H](Nc3nc4cc(F)ccc4s3)C2)c2nccnc21 [Example 154, 5-(trans-3-((5-fluorobenzo[d]thiazol-2-yl)amino)cyclobutyl)-7,7-dimethyl-5H-pyrrolo[2,3-b]pyrazin-6(7H)-one]"
17,0.127,"CC1(C)C(=O)N(C2CCN(c3ncc4ccccc4n3)CC2)c2ncccc21 [Example 188, 3,3-dimethyl-1-(1-(quinazolin-2-yl)piperidin-4-yl)-1H-pyrrolo[2,3-b]pyridin-2(3 H)-one]"
18,0.116,"CC1(C)C(=O)N([C@H]2C[C@H](Nc3nc4ccccc4o3)C2)c2ncccc21 [Example 168, 1-(trans-3-(benzo[d]oxazol-2-ylamino)cyclobutyl)-3,3-dimethyl-1H-pyrrolo[2,3-b]pyridin-2(3 H)-one]"

# From patent US9174992B2, “Heterobicyclic compounds” (Amgen Inc., priority 2012, dated 2015)
